Results as given in patent US20020111274A1, “1-alkyl-3-[1-(substituted phenyl) benzotriazol-6-yl] uracils” (BASF Aktiengesellschaft, priority 2000, published 2002).

Assays:
Design in all cases: scale not given here
ABUTH Velvetleaf [1] = assay: Postemergence herbicidal evaluation, ABUTH; assay type: in vivo, Abutilon theophrasti, Medic.; settings: postemergence spray, rated about two-three weeks after treatment
Method in brief: (§1)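 Plants are raised for roughly two weeks, then treated postemergence with compound dispersed in acetone/water (80/20) plus 1.0% seed oil adjuvant, at rates of about 0.006 kg to 0.400 kg per hectare. After greenhouse care, damage is scored two to three weeks later.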

AMBEL Ragweed, Common [2] = assay: Postemergence herbicidal evaluation, AMBEL; assay type: in vivo, Ambrosia artemisifolia, L.; settings: postemergence spray, rated about two-three weeks after treatment
Method in brief: as §1

CASOB Sicklepod [3] = assay: Postemergence herbicidal evaluation, CASOB; assay type: in vivo, Cassia obtusifolia, L.; settings: postemergence spray, rated about two-three weeks after treatment
Method in brief: as §1

[4] = system: CHEAL Lambsquarters, Common; assay: Postemergence herbicidal evaluation, CHEAL; assay type: in vivo, Chenopodium album, L.; settings: postemergence spray, rated about two-three weeks after treatment
Method in brief: as §1

ECHOG Barnyardgrass [5] = assay: Postemergence herbicidal evaluation, ECHOG; assay type: in vivo, Echinochloa crus-galli, (L.) Beau; settings: postemergence spray, rated about two-three weeks after treatment
Method in brief: as §1

GALAP Galium [6] = assay: Postemergence herbicidal evaluation, GALAP; assay type: in vivo, Galium aparine; settings: postemergence spray, rated about two-three weeks after treatment
Method in brief: as §1

[7] = system: IPOHE Morningglory, Ivyleaf; assay: Postemergence herbicidal evaluation, IPOHE; assay type: in vivo, Ipomoea hederacea, (L.) Jacq.; settings: postemergence spray, rated about two-three weeks after treatment
Method in brief: as §1

SETVI Foxtail, Green [8] = assay: Postemergence herbicidal evaluation, SETVI; assay type: in vivo, Setaria viridis, (L.) Beau; settings: postemergence spray, rated about two-three weeks after treatment
Method in brief: as §1

GLXMAW Soybean, Williams [9] = assay: Postemergence herbicidal evaluation, GLXMAW; assay type: in vivo, Glycine max, (L.) Merr. cv Williams; settings: postemergence spray, rated about two-three weeks after treatment
Method in brief: as §1

[10] = system: TRZAWR Wheat, Winter, cv Riband; assay: Postemergence herbicidal evaluation, TRZAWR; assay type: in vivo, Triticum aestivum; settings: postemergence spray, rated about two-three weeks after treatment
Method in brief: as §1

ORYSAT Rice, Tebonnet [11] = assay: Postemergence herbicidal evaluation, ORYSAT; assay type: in vivo, Oryza sativa, (L.); settings: postemergence spray, rated about two-three weeks after treatment
Method in brief: as §1

ZEAMX Corn, Field [12] = assay: Postemergence herbicidal evaluation, ZEAMX; assay type: in vivo, Zea mays, L. (Sammel-Bezeichnung); settings: postemergence spray, rated about two-three weeks after treatment
Method in brief: as §1

ABUTH Velvetleaf [13] = assay: Preemergence herbicidal evaluation, ABUTH; assay type: in vivo, Abutilon theophrasti, Medic.; settings: preemergence
Method in brief: (§2)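 First, seed is blended with potting soil and sown over roughly an inch of soil per cup. Next, the surface is sprayed with an aqueous acetone solution delivering about 0.013–0.800 kg/ha. Finally, cups are grown in the greenhouse and rated after 4–5 weeks.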

AMBEL Ragweed, Common [14] = assay: Preemergence herbicidal evaluation, AMBEL; assay type: in vivo, Ambrosia artemisifolia, L.; settings: preemergence
Method in brief: as §2

CASOB Sicklepod [15] = assay: Preemergence herbicidal evaluation, CASOB; assay type: in vivo, Cassia obtusifolia, L.; settings: preemergence
Method in brief: as §2

[16] = system: CHEAL Lambsquarters, Common; assay: Preemergence herbicidal evaluation, CHEAL; assay type: in vivo, Chenopodium album, L.; settings: preemergence
Method in brief: as §2

ECHOG Barnyardgrass [17] = assay: Preemergence herbicidal evaluation, ECHOG; assay type: in vivo, Echinochloa crus-galli, (L.) Beau; settings: preemergence
Method in brief: as §2

GALAP Galium [18] = assay: Preemergence herbicidal evaluation, GALAP; assay type: in vivo, Galium aparine; settings: preemergence
Method in brief: as §2

[19] = system: IPOHE Morningglory, Ivyleaf; assay: Preemergence herbicidal evaluation, IPOHE; assay type: in vivo, Ipomoea hederacea, (L.) Jacq.; settings: preemergence
Method in brief: as §2

SETVI Foxtail, Green [20] = assay: Preemergence herbicidal evaluation, SETVI; assay type: in vivo, Setaria viridis, (L.) Beau; settings: preemergence
Method in brief: as §2

GLXMAW Soybean, Williams [21] = assay: Preemergence herbicidal evaluation, GLXMAW; assay type: in vivo, Glycine max, (L.) Merr. cv Williams; settings: preemergence
Method in brief: as §2

[22] = system: TRZAWR Wheat, Winter, cv Riband; assay: Preemergence herbicidal evaluation, TRZAWR; assay type: in vivo, Triticum aestivum; settings: preemergence
Method in brief: as §2

ORYSAT Rice, Tebonnet [23] = assay: Preemergence herbicidal evaluation, ORYSAT; assay type: in vivo, Oryza sativa, (L.); settings: preemergence
Method in brief: as §2

ZEAMX Corn, Field [24] = assay: Preemergence herbicidal evaluation, ZEAMX; assay type: in vivo, Zea mays, L. (Sammel-Bezeichnung); settings: preemergence
Method in brief: as §2

COC(=O)COc1ccccc1-n1nnc2cc(F)c(-n3c(=O)cc(C(F)(F)F)n(C)c3=O)cc21 [Example 35]
Postemergence herbicidal rating ABUTH (ABUTH Velvetleaf [1]; 0.008 kg/ha): 5.0 | Postemergence herbicidal rating ABUTH (ABUTH Velvetleaf [1]; 0.016 kg/ha): 5.0 | Postemergence herbicidal rating ABUTH (ABUTH Velvetleaf [1]; 0.032 kg/ha): 9.0 | Postemergence herbicidal rating ABUTH (ABUTH Velvetleaf [1]; 0.062 kg/ha): 9.0 | Postemergence herbicidal rating AMBEL (AMBEL Ragweed, Common [2]; 0.008 kg/ha): 4.0 | Postemergence herbicidal rating AMBEL (AMBEL Ragweed, Common [2]; 0.016 kg/ha): 5.0 | Postemergence herbicidal rating AMBEL (AMBEL Ragweed, Common [2]; 0.032 kg/ha): 9.0 | Postemergence herbicidal rating AMBEL (AMBEL Ragweed, Common [2]; 0.062 kg/ha): 9.0 | Postemergence herbicidal rating CASOB (CASOB Sicklepod [3]; 0.008 kg/ha): 1.0 | Postemergence herbicidal rating CASOB (CASOB Sicklepod [3]; 0.016 kg/ha): 1.0 | Postemergence herbicidal rating CASOB (CASOB Sicklepod [3]; 0.032 kg/ha): 2.0 | Postemergence herbicidal rating CASOB (CASOB Sicklepod [3]; 0.062 kg/ha): 2.0 | Postemergence herbicidal rating CHEAL ([4]; 0.008 kg/ha): 1.0 | Postemergence herbicidal rating CHEAL ([4]; 0.016 kg/ha): 4.0 | Postemergence herbicidal rating CHEAL ([4]; 0.032 kg/ha): 6.0 | Postemergence herbicidal rating CHEAL ([4]; 0.062 kg/ha): 7.0 | Postemergence herbicidal rating ECHCG (ECHOG Barnyardgrass [5]; 0.008 kg/ha): 2.0 | Postemergence herbicidal rating ECHCG (ECHOG Barnyardgrass [5]; 0.016 kg/ha): 4.0 | Postemergence herbicidal rating ECHCG (ECHOG Barnyardgrass [5]; 0.032 kg/ha): 7.0 | Postemergence herbicidal rating ECHCG (ECHOG Barnyardgrass [5]; 0.062 kg/ha): 9.0 | Postemergence herbicidal rating GALAP (GALAP Galium [6]; 0.008 kg/ha): 1.0 | Postemergence herbicidal rating GALAP (GALAP Galium [6]; 0.016 kg/ha): 1.0 | Postemergence herbicidal rating GALAP (GALAP Galium [6]; 0.032 kg/ha): 3.0 | Postemergence herbicidal rating GALAP (GALAP Galium [6]; 0.062 kg/ha): 4.0 | Postemergence herbicidal rating IPOHE ([7]; 0.008 kg/ha): 9.0 | Postemergence herbicidal rating IPOHE ([7]; 0.016 kg/ha): 4.0 | Postemergence herbicidal rating IPOHE ([7]; 0.032 kg/ha): 9.0 | Postemergence herbicidal rating IPOHE ([7]; 0.062 kg/ha): 9.0 | Postemergence herbicidal rating SETVI (SETVI Foxtail, Green [8]; 0.008 kg/ha): 1.0 | Postemergence herbicidal rating SETVI (SETVI Foxtail, Green [8]; 0.016 kg/ha): 9.0 | Postemergence herbicidal rating SETVI (SETVI Foxtail, Green [8]; 0.032 kg/ha): 9.0 | Postemergence herbicidal rating SETVI (SETVI Foxtail, Green [8]; 0.062 kg/ha): 8.0 | Postemergence herbicidal rating GLXMAW (GLXMAW Soybean, Williams [9]; 0.008 kg/ha): 5.0 | Postemergence herbicidal rating GLXMAW (GLXMAW Soybean, Williams [9]; 0.016 kg/ha): 4.5 | Postemergence herbicidal rating GLXMAW (GLXMAW Soybean, Williams [9]; 0.032 kg/ha): 6.0 | Postemergence herbicidal rating GLXMAW (GLXMAW Soybean, Williams [9]; 0.062 kg/ha): 7.5 | Postemergence herbicidal rating TRZAWR ([10]; 0.008 kg/ha): 3.5 | Postemergence herbicidal rating TRZAWR ([10]; 0.016 kg/ha): 3.0 | Postemergence herbicidal rating TRZAWR ([10]; 0.032 kg/ha): 5.5 | Postemergence herbicidal rating TRZAWR ([10]; 0.062 kg/ha): 7.0 | Postemergence herbicidal rating ORYSAT (ORYSAT Rice, Tebonnet [11]; 0.008 kg/ha): 3.0 | Postemergence herbicidal rating ORYSAT (ORYSAT Rice, Tebonnet [11]; 0.016 kg/ha): 3.5 | Postemergence herbicidal rating ORYSAT (ORYSAT Rice, Tebonnet [11]; 0.032 kg/ha): 6.0 | Postemergence herbicidal rating ORYSAT (ORYSAT Rice, Tebonnet [11]; 0.062 kg/ha): 7.0 | Postemergence herbicidal rating ZEAMX (ZEAMX Corn, Field [12]; 0.008 kg/ha): 5.0 | Postemergence herbicidal rating ZEAMX (ZEAMX Corn, Field [12]; 0.016 kg/ha): 4.5 | Postemergence herbicidal rating ZEAMX (ZEAMX Corn, Field [12]; 0.032 kg/ha): 5.5 | Postemergence herbicidal rating ZEAMX (ZEAMX Corn, Field [12]; 0.062 kg/ha): 7.5 | ABUTH herbicidal rating (ABUTH Velvetleaf [13]; rate 0.016 kg/ha): 0.0 | ABUTH herbicidal rating (ABUTH Velvetleaf [13]; rate 0.032 kg/ha): 4.0 | ABUTH herbicidal rating (ABUTH Velvetleaf [13]; rate 0.062 kg/ha): 9.0 | ABUTH herbicidal rating (ABUTH Velvetleaf [13]; rate 0.125 kg/ha): 5.5 | AMBEL herbicidal rating (AMBEL Ragweed, Common [14]; rate 0.016 kg/ha): 0.0 | AMBEL herbicidal rating (AMBEL Ragweed, Common [14]; rate 0.032 kg/ha): 0.0 | AMBEL herbicidal rating (AMBEL Ragweed, Common [14]; rate 0.062 kg/ha): 3.5 | AMBEL herbicidal rating (AMBEL Ragweed, Common [14]; rate 0.125 kg/ha): 5.0 | CASOB herbicidal rating (CASOB Sicklepod [15]; rate 0.016 kg/ha): 0.0 | CASOB herbicidal rating (CASOB Sicklepod [15]; rate 0.032 kg/ha): 0.0 | CASOB herbicidal rating (CASOB Sicklepod [15]; rate 0.062 kg/ha): 4.0 | CASOB herbicidal rating (CASOB Sicklepod [15]; rate 0.125 kg/ha): 2.0 | CHEAL herbicidal rating ([16]; rate 0.016 kg/ha): 0.0 | CHEAL herbicidal rating ([16]; rate 0.032 kg/ha): 9.0 | CHEAL herbicidal rating ([16]; rate 0.062 kg/ha): 9.0 | CHEAL herbicidal rating ([16]; rate 0.125 kg/ha): 9.0 | ECHCG herbicidal rating (ECHOG Barnyardgrass [17]; rate 0.016 kg/ha): 0.0 | ECHCG herbicidal rating (ECHOG Barnyardgrass [17]; rate 0.032 kg/ha): 0.0 | ECHCG herbicidal rating (ECHOG Barnyardgrass [17]; rate 0.062 kg/ha): 2.0 | ECHCG herbicidal rating (ECHOG Barnyardgrass [17]; rate 0.125 kg/ha): 4.5 | GALAP herbicidal rating (GALAP Galium [18]; rate 0.016 kg/ha): 0.0 | GALAP herbicidal rating (GALAP Galium [18]; rate 0.032 kg/ha): 0.0 | GALAP herbicidal rating (GALAP Galium [18]; rate 0.062 kg/ha): 0.0 | GALAP herbicidal rating (GALAP Galium [18]; rate 0.125 kg/ha): 5.0 | IPOHE herbicidal rating ([19]; rate 0.016 kg/ha): 0.0 | IPOHE herbicidal rating ([19]; rate 0.032 kg/ha): 4.5 | IPOHE herbicidal rating ([19]; rate 0.062 kg/ha): 5.0 | IPOHE herbicidal rating ([19]; rate 0.125 kg/ha): 9.0 | SETVI herbicidal rating (SETVI Foxtail, Green [20]; rate 0.016 kg/ha): 0.0 | SETVI herbicidal rating (SETVI Foxtail, Green [20]; rate 0.032 kg/ha): 1.5 | SETVI herbicidal rating (SETVI Foxtail, Green [20]; rate 0.062 kg/ha): 6.5 | SETVI herbicidal rating (SETVI Foxtail, Green [20]; rate 0.125 kg/ha): 9.0 | GLXMAW herbicidal rating (GLXMAW Soybean, Williams [21]; rate 0.016 kg/ha): 1.0 | GLXMAW herbicidal rating (GLXMAW Soybean, Williams [21]; rate 0.032 kg/ha): 0.0 | GLXMAW herbicidal rating (GLXMAW Soybean, Williams [21]; rate 0.062 kg/ha): 1.5 | GLXMAW herbicidal rating (GLXMAW Soybean, Williams [21]; rate 0.125 kg/ha): 2.5 | TRZAWR herbicidal rating ([22]; rate 0.016 kg/ha): 0.0 | TRZAWR herbicidal rating ([22]; rate 0.032 kg/ha): 0.0 | TRZAWR herbicidal rating ([22]; rate 0.062 kg/ha): 1.0 | TRZAWR herbicidal rating ([22]; rate 0.125 kg/ha): 1.0 | ORYSAT herbicidal rating (ORYSAT Rice, Tebonnet [23]; rate 0.016 kg/ha): 0.0 | ORYSAT herbicidal rating (ORYSAT Rice, Tebonnet [23]; rate 0.032 kg/ha): 0.0 | ORYSAT herbicidal rating (ORYSAT Rice, Tebonnet [23]; rate 0.062 kg/ha): 3.5 | ORYSAT herbicidal rating (ORYSAT Rice, Tebonnet [23]; rate 0.125 kg/ha): 6.0 | ZEAMX herbicidal rating (ZEAMX Corn, Field [24]; rate 0.016 kg/ha): 0.0 | ZEAMX herbicidal rating (ZEAMX Corn, Field [24]; rate 0.032 kg/ha): 0.0 | ZEAMX herbicidal rating (ZEAMX Corn, Field [24]; rate 0.062 kg/ha): 1.0 | ZEAMX herbicidal rating (ZEAMX Corn, Field [24]; rate 0.125 kg/ha): 3.0
